Laboratory results: patent US5756504A, “Tocolytic oxytocin receptor antagonists” (priority 1996, dated 1998)
Read-outs that look alike come from different tables or passages of the source.

Experiments:
[1] = target: T1, oxytocin receptor ([^3 H]OT binding, uterine tissue) (Rattus norvegicus, UniProt P70536); experiment: [3H]oxytocin radioligand binding competition assay, rat uterus; set-up: species or system rat (Sprague-Dawley)
T1 construct: tissue Taconic Farms, Germantown, N.Y. (animals); host or cells: uterus of nonpregnant adult Sprague-Dawley rats pretreated with diethylstilbestrol propionate, crude membranes
T1 sequence (P70536 1-388): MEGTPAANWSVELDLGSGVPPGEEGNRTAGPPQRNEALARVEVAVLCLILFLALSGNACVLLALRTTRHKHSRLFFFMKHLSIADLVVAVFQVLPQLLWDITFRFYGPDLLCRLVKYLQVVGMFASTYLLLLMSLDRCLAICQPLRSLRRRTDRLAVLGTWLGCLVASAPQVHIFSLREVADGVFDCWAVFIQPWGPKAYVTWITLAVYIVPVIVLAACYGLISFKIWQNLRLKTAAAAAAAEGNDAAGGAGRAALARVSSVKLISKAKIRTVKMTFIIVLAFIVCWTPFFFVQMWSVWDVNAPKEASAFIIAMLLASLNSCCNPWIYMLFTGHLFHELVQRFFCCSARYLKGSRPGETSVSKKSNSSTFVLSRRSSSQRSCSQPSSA
Protocol: RADIOLIGAND BINDING ASSAYS
Ther., 256(1): 304-308 (1991)]. Uterine tissue was taken from nonpregnant adult Sprague-Dawley rats (Taconic Farms, Germantown, N.Y.) pretreated (18-24 h) with diethylstilbestrol propionate (DES; 300 μg/kg, i.p.). Uterine tissue (full thickness) was also taken with informed consent from nonlabor pregnant women undergoing cesarean section at 38 to 39 weeks gestation (Oregon Health Sciences Center, Portland, Oreg.). Liver and kidney medulla samples were taken from male rats and from human surgical and early postmortem donors (National Disease Research Interchange, Philadelphia Pa.; Analytical Biological Services, Wilmington, Del.).
Nonspecific binding was determined using 1 μM unlabeled OT or AVP in their respective assays. The binding reactions were initiated by the addition of tissue preparation and terminated by filtration using a Skatron cell harvester (model 7019, Skatron, Inc., Sterling, Va.). […] The final protein concentration for the various tissues in each assay ranged from 150 to 300 μg/ml [Lowry, P. H.; Rosebrough, N. J.; Farr, A. L.; Randall, R. J.; J. Biol. Chem., 193:265-275 (1951)].
Data is either reported as a given percentage of inhibition at a specified concentration,or if an IC50 was calculated, as a nanomolar concentration.

[2] = cited from earlier work
[3] = compared with ritodrine; cited from earlier work
uterus = experiment: uterine contraction in situ in nonpregnant rat; assay type: in vivo, rat (Sprague-Dawley); conditions: i.v., DES-pretreated anesthetized rats
Protocol: 2. OT antagonist activity in the nonpregnant rat
The procedure for measuring isometric contraction of the uterus in situ was adapted from that of Chan et al. [1974] as previously described [Pettibone et al., 1989]. Sprague-Dawley rats (200-300 g, Taconic Farms, Germantown, N.Y.) pretreated with DES (0.25 mg/kg, i.p.; 18 h) were anesthetized with urethane (1.75 g/kg, i.p.), a tracheal cannula was inserted, and a femoral vein was cannulated. The left uterine horn was exposed, and the anterior part of the horn was secured with surgical silk to an anchor post. A second ligature about 3 cm posterior to the first tie was connected to a force transducer and maintained at a tension of 1 g. Signals from the transducer were amplified and recorded. The contractile response of the uterus to OT was quantified by computerized measurement of the area under the contraction-time curve for a 10-min period immediately after the injection of OT. The following protocol was adopted for most experiments. […] The contractile response obtained from the third injection was set as 100%. Areas determined after each injection was expressed as a percentage of the area obtained for the third injection. […] The dose of test compound required to reduce the response to OT by 50% (AD50) was calculated from the contractile areas obtained after the fourth injection of OT (i.e., 5 min postinfusion of test compound). […]

Structure (SMILES) | IC50 [1] | other results
COc1cc(OC2CCN(S(=O)(=O)CCNC3CC3)CC2)ccc1CC(=O)N1CCN(c2ccccc2C)CC1C(N)=O (stereo not drawn) [Example 12, 1-(2-Methoxy-4-(1-(2-(N-cyclopropylamino)-ethylsulfonyl)-4-piperidyloxy)phenylacetyl)-4-(2-methylphenyl)piperazine-2-carboxamide] | 20 nM | 
COc1ccc(CC(=O)N2CCN(c3ccccc3C)CC2C(N)=O)c(OC)c1 (stereo not drawn) [Example 7, 1-(2,4-Dimethoxyphenylacetyl)-4-(2-methylphenyl)piperazine-2-carboxamide] | 80 nM | 
COc1cc(OC2CCN(c3c(O)c(=O)c3=O)CC2)ccc1CC(=O)N1CCN(c2ccccc2C)CC1C(N)=O (stereo not drawn) [Example 14, 1-(2-Methoxy-4-(1-(3-hydroxy-3-cyclobutene-1,2-dion-4-y)-4-piperidyloxy)phenylacetyl)-4-(2-methylphenyl)piperazine-2-carboxamide] |  | IC50 ([1]; read-out: Result For [^3 H]OT (IC50), rat uterus membranes, 1 nM [^3 H]OT): 24 nM
CC(NCCc1ccc(O)cc1)C(O)c1ccc(O)cc1 (stereo not drawn) [Ritodrine] |  | side effects ([2]; tocolytic use, in the mother): causes a number of cardiovascular and metabolic side effects in the mother, including tachycardia, increased renin secretion, hyperglycemia (and reactive hypoglycemia in the infant)
O=S(=O)([O-])[O-].[Mg+2] [Magnesium sulfate] |  | toxicity above therapeutic plasma range ([2]; plasma concentrations above 4 to 8 mg/dL): can cause inhibition of cardiac conduction and neuromuscular transmission, respiratory depression and cardiac arrest
COc1cc(OC2CCN(Cc3cccnc3)CC2)ccc1CC(=O)N1CCN(c2ccccc2C)CC1C(N)=O (stereo not drawn) [Example 15, 1-(2-Methoxy-4-(-1-((pyrid-3-yl)methyl)-4-piperidyloxy)phenylacetyl)-4-(2-methylphenyl) piperazine-2-carboxamide] | 28 nM | 
COc1ccc(CC(=O)N2CCN(c3ccccc3C)CC2)c(OC)c1 [Example 6, 1-(2,4-Dimethoxyphenylacetyl)-4-(2-methylphenyl)piperazine] | 540 nM | 
O=C(Nc1ccc(CC(=O)N2CCC3(C=Cc4ccccc43)CC2c2ccccc2)cc1)c1ccc2[nH]cnc2c1 (stereo not drawn) [Example 2, 1'-(4-(Benzimidazole-5-carboxylamino)phenylacetyl)-2'-phenylspiro[1H]indene-1,4'-piperidine] | 120 nM | 
CCO [Ethanol] |  | effectiveness in preventing premature labor [3]: as effective as ritodrine in preventing premature labor; reduction in incidence of fetal respiratory distress [3]: does not produce a corresponding reduction in the incidence of fetal respiratory distress
CC(C)(C)NCC(O)c1ccc(O)c(CO)c1 (stereo not drawn) [albuterol] |  | side effects ([2]; in vivo): side effects similar to those of ritodrine
COc1cc(OC2CCN(C(C)=O)CC2)ccc1CC(=O)N1CCN(c2ccccc2C)CC1C(N)=O (stereo not drawn) [Example 9, 1-(2-Methoxy-4-(1-acetyl-4-piperidyloxy)phenylacetyl)-4-(2-methylphenyl)piperazine-2-carboxamide] | 34 nM | 
COc1ccc(CC(=O)N2CCC3(C=Cc4ccccc43)CC2)c(OC)c1 [Example 1, 1'-(2,4-Dimethoxyphenylacetyl)-spiro[1H]indene-1,4'-piperidine] | 400 nM | 
O=C(Nc1ccc(CC(=O)N2CCC3(C=Cc4ccccc43)CC2)cc1)c1ccc2cc[nH]c2c1 [Example 4, 1'-(4-(Indole-6-carboxylamino)phenylacetyl)spiro[1H]indene-1,4'-piperidine] | 1600 nM | 
CC[C@H](C)[C@@H]1NC(=O)[C@H](Cc2ccc(O)cc2)NC(=O)[C@@H](N)CSSC[C@@H](C(=O)N2CCC[C@H]2C(=O)N[C@@H](CC(C)C)C(=O)NCC(N)=O)NC(=O)[C@H](CC(N)=O)NC(=O)[C@H](CCC(N)=O)NC1=O [OT, oxytocin] |  | ED50 dose of OT (uterine contraction) (uterus): ~1 µg/kg
CCN(CC)CCS(=O)(=O)N1CCC(Oc2ccc(CC(=O)N3CCN(c4ccccc4C)CC3C(N)=O)c(OC)c2)CC1 (stereo not drawn) [Example 11, 1-(2-Methoxy-4-(1-(2-(N,N-Diethylamino)ethylsulfonyl)-4-piperidyloxy)phenylacetyl)-4-(2-methylphenyl)piperazine-2-carboxamide] | 21 nM | 
Cc1ccccc1N1CCN(C(=O)Cc2ccc(NC(=O)c3ccc4[nH]cnc4c3)cc2)C(C(N)=O)C1 (stereo not drawn) [Example 8, 1-(4-(Benzimidazol-5-carboxylamino)phenylacetyl)-4-(2-methylphenyl)piperazine-2-carboxamide] | 30 nM | 
CC(C)(C)NCC(O)c1cc(O)cc(O)c1 (stereo not drawn) [terbutaline] |  | side effects ([2]; tocolytic use, in the mother): side effects similar to those of ritodrine
